Reference: patent publication US20160213633A1, “METHOD OF INDUCING ANTI-GLATIRAMER ACETATE ANTIBODY RESPONSE” (Teva Pharmaceutical Industries, Ltd., priority 2015, published 2016)
Like-named read-outs stand apart in the source and are kept apart here.

Assays:
[1] = test system: anti-GA specific IgG antibodies; settings: for average anti-GA IgG response (Screening RA %): GA treatment group, 40 mg sc three times a week, 1/500 dilution
Description: The screening results of the 1/500 dilution are presented as RA %.
Analysis was performed using ELISA.
Each plate should include the following samples: • System suitability Test (SST)—wells coated with purified human IgG. • SST Blank—wells coated with the blocking buffer only (w/o hIgG and human serum sample). […] To be subtracted from the NHS & PHS controls and from the human tested serum samples. • Sample 1-Sample 13—different tested serum samples. Each sample applied in two dilutions ( 1/500 and 1/1000)
All tested human serum samples of different time points from the same individual should be tested (in triplicates), if possible, in the same plate to allow comparison.
Prepare a 1.0 ug/ml dilution of hIgG coating antibody and coat the plate at 100 ul/well.
For washing, empty plate and tap out residual liquid, fill each well with 300 ul washing buffer and then invert plate to empty, tap out residual liquid onto paper towel.
For blocking, add 300 ul/well of blocking buffer to each well, seal the plate and incubate at room temperature for 1 hour, and wash the plates three times.
For sample loading, add 100 ul diluted test samples and/or control sample and/or sample buffer to each well. Seal the plate and incubate for 2 hours at room temperature, empty plate, tap out residual liquid and wash three times.
For detection antibody, prepare 1:4000 dilution of the biotinylated anti-hIgG detection antibody by diluting 2.5 ul biotinylated anti-hIgG antibody to 10 ml of blocking buffer. Prepare 10 ml biotinylated anti-human IgG detection antibody solution per plate and add 100 ul of the prepared detection antibodies to each well. Seal the plate and incubate for 1 hour at room temperature. Then empty plate, tap out residual liquid and wash five times.
For streptavidin conjugated horseradish peroxidase (HRP), prepare working dilution of the streptavidin conjugated HRP in blocking buffer. Then add 100 ul/well of the prepared streptavidin conjugated HRP solution, following shaking the plate for a few seconds. Then incubate the plate for 1 hour at room temperature in the dark, following washing five times.
For enzymatic reaction, TMB (3,3,5,5-tetramethylbenzidine peroxidase) is used. Mix equal volumes of TMB Peroxidase Substrate (Part 1) and Peroxidase Substrate Solution B in a clean glass container immediately prior to use. Dispense 100 ul of TMB solution into each well and incubate the plate for 15-30 minutes in the dark at 37° C. Stop the reaction with 100 ul stop solution per well (1N sulphuric acid) and shake the plate for a few seconds. Read the absorbance (ABS) of each well at 450 nm.
For blank subtraction, subtract the calculated average absorbance (ABS) of SST blank from average (AVG) ABS value of the SST. Subtract the calculated AVG ABS of blank from AVG ABS value of each test sample including PHS and NHS control samples. All data points that fall below 0.000 are set equal to 0.000.
To overcome plate-to-plate variability, the results are normalized by dividing the absorbance (ABS) of each test sample (including the controls) with that of the SST. This value is the Relative Absorbance (RA) ratio and is multiplied by 100 expressed in percent. These values are the reported response values of the test. The RA value is calculated according to the following equation: […]
The RA values of the normal human serum samples obtained from untreated individuals are used to calculate a cut-point value of the test. The cut-point value is used to distinguish between negative and positive human serum samples. In case that the calculated cut point value of the study is lower than the RA of the detection limit (2*Blank) of the study, the cut point is calculated as follows: […]
The results of the other dilution ( 1/1000) will be reported for monitoring, to allow semi quantitative comparison of the tested serum defined as positive.
All samples of each patient were tested on the same plate, whenever it was possible.

anti-GA IgG antibodies = test system: anti-GA IgG antibodies
Description: Sample positivity of each screen positive sample of each patient was confirmed in further testing by comparison to the confirmatory cut-point.
Unspiked and spiked samples were tested according to the method but only in 1/500 dilution.
The confirmatory cut-point factor is calculated to set the false positive rate at 1%. Reported value (RV) were the unspiked sample avg. ODA and the spiked sample avg. OD. RV were obtained from 50 naïve individuals, each measured 4 times over 2 days by 2 analysts.
Percent RA inhibition was calculated according to the following equation:
Percent inhibition=100×(1−(RA of spiked)/(RA of unspiked))

Substance: L-glutamic acid polymer with L-alanine, L-lysine and L-tyrosine, acetate (salt) [GA]
- Sample Positivity ([1]; Baseline visit, RA % vs cut-point 1.4, one line per patient): Negative
- Sample Positivity ([1]; Baseline, cut-point RA % of 1.4, individual patient): Negative
- average anti-GA IgG response (Screening RA %) ([1]; Baseline): 0.4568 RA %
- average anti-GA IgG response (Screening RA %) ([1]; Month 1): 34.75 RA %
- average anti-GA IgG response (Screening RA %) ([1]; Month 3): 67.72 RA %
- average anti-GA IgG response (Screening RA %) ([1]; Month 6): 39.69 RA %
- average anti-GA IgG response (Screening RA %) ([1]; Month 9): 30.61 RA %
- average anti-GA IgG response (Screening RA %) ([1]; Month 12): 28.94 RA %
- average anti-GA IgG response (Screening RA %) ([1]; Month 18): 24.9 RA %
- average anti-GA IgG response (Screening RA %) ([1]; Month 24): 23.36 RA %
- Sample Positivity ([1]; Month 1, RA % vs cut-point 1.4, one line per patient): POSITIVE
- Sample Positivity ([1]; Month 2 (so in the source), RA % vs cut-point 1.4, patient 537414): POSITIVE
- Sample Positivity ([1]; Month 3, RA % vs cut-point 1.4, one line per patient): POSITIVE
- Sample Positivity ([1]; Month 3, cut-point RA % of 1.4, individual patient): POSITIVE
- Sample Positivity ([1]; Month 6, RA % vs cut-point 1.4, one line per patient): POSITIVE
- Sample Positivity ([1]; Month 6, cut-point RA % of 1.4, individual patient): POSITIVE
- Sample Positivity ([1]; Month 12, RA % vs cut-point 1.4, one line per patient): POSITIVE
- antibody level versus baseline ([1]; about 12 months after the initial 40 mg/ml dose): higher than baseline
- total anti-GA IgG levels ([1]; by month 6 of the treatment): decreased
- rate of increase of antibody level ([1]; first month compared to after the first month to the third month): greater rate during the first month
- non-baseline samples higher than the cut-point value (RA % of 1.4) ([1]; human, in vivo): 96.2%
- antibody level after the peak versus baseline ([1]; month 24): did not reach the baseline level
- Inhibition (%) (anti-GA IgG antibodies; Baseline visit; one line per patient): 68.2%
- Inhibition (%) (anti-GA IgG antibodies; Baseline; confirmation test, spiking with GA; each line one patient): 65.5%
- Inhibition (%) (anti-GA IgG antibodies; Month 1; confirmation test): 63.8%
- Confirmed Positivity (Yes/No) (anti-GA IgG antibodies; Month 1; individual patient): YES
- Inhibition (%) (anti-GA IgG antibodies; Month 1 visit, individual patient): 18.7%
- Inhibition (%) (anti-GA IgG antibodies; Month 1 visit; individual patient): 63.2%
- Confirmed Positivity (Yes/No) (anti-GA IgG antibodies; Month 3; individual patient): YES
- Inhibition (%) (anti-GA IgG antibodies; Month 3 visit, individual patient): 47.0%
- Inhibition (%) (anti-GA IgG antibodies; Month 6; confirmation test): 61.1%
- Confirmed Positivity (Yes/No) (anti-GA IgG antibodies; Month 6; individual patient): YES
- Confirmed Positivity (Yes/No) (anti-GA IgG antibodies; Month 6 visit, individual patient): YES
- Inhibition (%) (anti-GA IgG antibodies; Month 9; confirmation test): 56.8%
- Confirmed Positivity (Yes/No) (anti-GA IgG antibodies; Month 9; individual patient): YES
- Confirmed Positivity (Yes/No) (anti-GA IgG antibodies; Month 9 visit, individual patient): YES
- Inhibition (%) (anti-GA IgG antibodies; Month 12; confirmation test): 58.5%
- Confirmed Positivity (Yes/No) (anti-GA IgG antibodies; Month 12; individual patient): YES
- Confirmed Positivity (Yes/No) (anti-GA IgG antibodies; Month 12 visit, individual patient): YES
- Inhibition (%) (anti-GA IgG antibodies; Month 18; confirmation test): 60.2%
- Confirmed Positivity (Yes/No) (anti-GA IgG antibodies; Month 18; individual patient): YES
- Confirmed Positivity (Yes/No) (anti-GA IgG antibodies; Month 18 visit, individual patient): YES
- Inhibition (%) (anti-GA IgG antibodies; Month 24; confirmation test): 66.8%
- Inhibition (%) (anti-GA IgG antibodies; Month 24; confirmation test; individual patient): 66.7%
- Confirmed Positivity (Yes/No) (anti-GA IgG antibodies; Month 24; individual patient): YES
- Confirmed Positivity (Yes/No) (anti-GA IgG antibodies; Month 24 visit, individual patient): YES
- Inhibition (%) (anti-GA IgG antibodies; confirmation test, individual patient, Month 1): 63.3%
- Inhibition (%) (anti-GA IgG antibodies; confirmation test, individual patient, Month 18): 59.5%
- Inhibition (%) (anti-GA IgG antibodies; confirmation test, individual patient, Month 24): 58.2%
- presence of anti-GA IgG Abs in tested patients (anti-GA IgG antibodies; every tested patient (262 patients)): confirmed positive
- positivity of non-baseline samples verified in the confirmatory test (anti-GA IgG antibodies; screen positive non-baseline samples; confirmatory cut-point […]): 99.9%
